“Also recorded” adds a separate entry of the source. Where two headings read alike, the source gives them in different places. Ends that are not written are not given here.
Experiments:
[1] = system: Mac-1-HEK293 cells; assay type: cell-based, human
[2] = system: αMI-domain; settings: surface plasmon resonance and biolayer interferometry; cited from earlier work
[3] = system: U937, IC-21 and erythrocytes; test: Binding density of 125I-LL-37-GY on mammalian cells; settings: 5 μg/ml 125I-LL-37-GY; U937, IC-21 and erythrocytes vs tested bacteria
[4] = Binding of 125I-LL-37-GY to latex beads; settings: 10 μg/ml 125I-labeled LL-37-GY; preliminary experiments
[5] = system: IC-21 macrophages; settings: LL-37 10 μg/ml, 1 μm beads, beads:cells 10:1, 30 min at 37 °C
[6] = system: rodents; settings: LL-37 injection; cited from earlier work
[7] = system: adherent murine peritoneal macrophages; test: Phagocytosis of E. coli and S. aureus by adherent murine peritoneal macrophages; assay type: cell-based; settings: LL-37 5 μg/ml, 60 min at 37 °C
[8] = system: adherent IC-21 macrophages; settings: LL-37 5 μg/ml, S. aureus, 60 min at 37 °C
[9] = system: U937 cells; test: Adhesion of U937 monocytic cells to immobilized LL-37; assay type: cell-based, human; settings: data not shown
[10] = system: adherent IC-21 macrophages; settings: LL-37 5 μg/ml, E. coli, 60 min at 37 °C
[11] = system: neutrophils; settings: cited from earlier work
[12] = system: Mac-1-HEK293 cells; test: Spreading of Mac-1-HEK293 cells on LL-37; assay type: cell-based, human; settings: slides coated with LL-37, 30 min at 37 °C
[13] = system: αMI-domain; settings: cited from earlier work
[14] = system: Salmonella; test: Binding density of 125I-LL-37-GY on Salmonella; settings: 5 μg/ml 125I-LL-37-GY, 20 min at 22 °C
[15] = system: macrophages; settings: pretreatment of macrophages with LL-37; cited from earlier work
[16] = system: bacteria; settings: bacterial killing in physiologically relevant buffers; cited from earlier work
[17] = system: human peripheral blood monocytes, neutrophils and T cells; settings: cited from earlier work
[18] = system: leukocytes; settings: soluble LL-37; cited from earlier work
[19] = system: wild-type macrophages; test: Phagocytosis of latex beads by wild-type peritoneal macrophages; assay type: cell-based, mouse
[20] = system: human THP-1 cells; settings: LL-37 10 μg/ml, 1 μm beads, beads:cells 10:1, 30 min at 37 °C
[21] = system: wild-type HEK293 cells; test: Spreading of wild-type HEK293 cells on LL-37; assay type: cell-based, human; settings: 30 min at 37 °C
[22] = system: primary human monocytes; settings: compared to uncoated beads; cited from earlier work
[23] = system: Human neutrophils; settings: cited from earlier work
[24] = system: IC-21 macrophages; test: Adhesion of IC-21 macrophages to immobilized peptide; assay type: cell-based, murine; settings: in words; Fig. 4A shown for K18-37
[25] = system: mammalian cells; settings: LL-37 10 μg/ml; data not shown
[26] = system: murine macrophages; settings: opsonization with LL-37; cited from earlier work
[27] = system: wild-type HEK293 cells; test: Adhesion of wild-type HEK293 cells to immobilized LL-37; assay type: cell-based, human
[28] = system: peritoneal mouse macrophages; settings: LL-37 10 μg/ml, 1 μm beads, beads:cells 10:1, 30 min at 37 °C
[29] = system: Human neutrophils; settings: cited from earlier work; remark: listed apart in the source
[30] = system: Mac-1-HEK293 cells; test: Adhesion of Mac-1-HEK293 cells to immobilized peptide; assay type: cell-based, human
[31] = system: macrophages; test: Phagocytosis of bacteria by macrophages; assay type: cell-based
[32] = system: monocyte and macrophages; settings: cited from earlier work
[33] = system: Mac-1-deficient macrophages; test: Phagocytosis of latex beads by Mac-1-deficient peritoneal macrophages; assay type: cell-based, mouse; settings: LL-37-coated beads, 30 min at 37 °C
[34] = system: Mac-1; settings: cited from earlier work
[35] = system: wild-type HEK293 cells; test: Inhibition of wild-type HEK293 cell adhesion to immobilized LL-37; assay type: cell-based, human; settings: heparin 20 μg/ml, all coating concentrations of LL-37
[36] = system: IC-21 macrophages; test: Inhibition of IC-21 macrophage adhesion to immobilized K18-37; assay type: cell-based, murine; settings: K18-37 coating 0.5 μg/ml; heparin 20 μg/ml; mean ± S.E. from 5-6 experiments
[37] = system: Mac-1-HEK293 cells; test: Inhibition of Mac-1-HEK293 cell adhesion to immobilized LL-37; assay type: cell-based, human

DIDPKLKWD [reference compound]
inhibition of cell adhesion to fibrinogen ([1]; control peptide, fibrinogen coated at 2.5 μg/ml, 15 min at 22 °C): inactive

FKRIVQRIKDFLR [FK-13, reference compound]
interaction with αMI-domain [2]: no interaction

KRIVQRIKDFLRNLVPRTES [K18-37]
IC50 for inhibition of cell adhesion to fibrinogen ([1]; 3 h): 6 µg/mL

LL-37-GY: LL-37 containing two additional C-terminal residues Gly-Tyr (LLGDFFRKSKEKIGKEFKRIVQRIKDFLRNLVPRTESGY; also: 125I label, place not given here)
binding compared with bacteria [3]: bound significantly less
binding density on beads [4]: 10.6±1.3 fg/μm^2

LLGDFFRKSKEKIGKEFKRIVQRIKDFLRNLVPRTES [LL-37]
fold augmentation of bead uptake [5]: ~ 3.5 fold
protection from septic death [6]: protects rodents from septic death
phagocytosis [7]: increased phagocytosis
fold increase of phagocytosis [8]: ~10 fold
adhesion of U937 cells [9]: adhered to LL-37 in a concentration-dependent manner
fold increase of phagocytosis [10]: ~ 17 fold
neutrophil activation [11]: activates Mac-1 on the surface of neutrophils
cell spreading [12]: spread in a concentration-dependent manner with the formation of stress fibers
αMI-domain binding [13]: binds the αMI-domain
binding relative to E. coli (fold less) [14]: 1.8 fold
binding to Salmonella relative to mammalian cells (fold higher) [14]: ~ 17 fold
bacterial phagocytosis [15]: augmented by pretreatment of macrophages
minimal inhibitory concentration [16]: 30 to 100 µg/mL
chemotactic effect [17]: chemotactic effect
concentration affecting membrane integrity of leukocytes [18]: > 50 µg/mL
enhancement of bead uptake ([19]; LL-37-coated beads, 30 min at 37 °C, three experiments in triplicate): ~ 5 times
enhancement of bead uptake ([19]; LL-37-coated vs untreated beads, abstract): several fold higher than that of untreated beads
fold augmentation of bead uptake [20]: ~6 fold
interaction with αMI-domain [2]: The interaction of the αMI-domain with LL-37 also was recently reported
cell spreading ([21]; LL-37 coating 2 μg/ml): spread at higher LL-37 concentrations
cell spreading ([21]; LL-37 coating 0.2-1.0 μg/ml): remained round
uptake of LL-37-coated beads [22]: increased compared to uncoated beads
production of reactive oxygen species [23]: increase the production of reactive oxygen species
adhesion of IC-21 macrophages [24]: strongly adhered
calcein leakage relative to background of control untreated cells [25]: ~ 3 fold
phagocytosis [26]: increased phagocytosis by murine macrophages
adhesion of wild-type HEK293 cells ([27]; LL-37 coating 0-1.0 μg/ml): no adhesion
adhesion of wild-type HEK293 cells ([27]; LL-37 coating 1-4 μg/ml): supported adhesion of wild-type HEK293 cells; however, maximal adhesion did not reach the level attained with Mac-1-HEK293 cells
fold augmentation of bead uptake [28]: ~4.5 fold
apoptosis [29]: delayed apoptosis
adhesion (percent of added cells) ([30]; LL-37 coating 2 μg/ml, 30 min at 37 °C, calcein fluorescence, n=6): 52 ± 5%
coating concentration for saturable adhesion ([30]; Mac-1-HEK293, 30 min at 37 °C): 2 µg/mL
adhesion supported by peptide ([30]; in words): supported strong adhesion; also recorded: supported efficient adhesion
phagocytosis of bacteria ([31]; Gram-negative and Gram-positive bacteria coated with LL-37, abstract): significantly potentiated their phagocytosis
concentration found to enhance bacterial phagocytosis ([31]; summary in discussion): 1 to 5 µg/mL
induction of migration [32]: induces a potent migratory response of Mac-1-expressing monocytes and macrophages; also recorded: induced Mac-1-dependent migration of monocyte and macrophages
enhancement of bead uptake [33]: failed to augment phagocytosis of beads

dynorphin A
phagocytosis [34]: enhance phagocytosis
phagocytosis ([34]; opsonization, through Mac-1): opsonizes bacteria and promotes phagocytosis through Mac-1

heparin
inhibition of adhesion of wild-type HEK293 cells [35]: strong inhibitor of adhesion
inhibition of adhesion to K18-37 [36]: 25 ± 13%

B1: NIF: neutrophil inhibitory factor, a specific inhibitor of the αMI-domain-ligand interactions (protein)
chain: NEHNLRCPQNGTEMPGFNDSIRLQFLAMHNGYRSKLALGHISITEESESDDDDDFGFLPDFAPRASKMRYLEYDCEAEKSAYMSARNCSDSSSPPEGYDENKYIFENSNNISEAALKAMISWAKEAFNLNKTKEGEGVLYRSNHDISNFANLAWDAREKFGCAVVNCPLGEIDDETNHDGETYATTIHVVCHYPKINKTEGQPIYKVGTPCDDCSEYTKKADNTTSADPVCIPDDGVCFIGSKADYDSKEFYRFREL
inhibition of adhesion ([37]; LL-37 coating high (2 μg/ml or ≥2 μg/ml), inhibitor preincubated 15 min at 22 °C): but not high (≥2 μg/ml) concentrations
inhibition of cell adhesion to LL-37 (summary, words) ([37]; abstract, various Mac-1-expressing cells): partially inhibited
